Converted amounts (≈) assume the structure as drawn.
Assays:
Type in all cases: ADME
[1] = Stability of the compound in simulated gastric fluid after 24 hrs at 37 degC; conditions: simulated gi fluid
[2] = Solubility of the compound in fasted simulated intestinal fluid after 4 hrs
[3] = Passive permeability of the compound by PAMPA assay; conditions: read-out: permeability

In the case of `CC(C)S(=O)(=O)c1c(Cl)ccc(Nc2nc(=O)cc(C(C)(C)C)[nH]2)c1O`, the Stability [1] is reported as “Stable”, the solubility at 4 h [2] is reported as 33 µg/mL (≈ 82.5 µM) and the Papp [3] is reported as 37 ×10⁻⁶ cm/s.
